# Reference: patent US12344621B2, “CGRP antagonist compounds” (Nxera Pharma UK Limited, priority 2019, dated 2025)
# Molecular target: T1, human CGRP receptor (Homo sapiens, UniProt O60894+Q16602)
# T1 construct: SK-N-MC endogenously expressing the human CGRP receptor; endogenous in cells; host or cells: SK-N-MC human neuroblastoma cells
# Assay: cAMP functional assay (HTRF cAMP dynamic-2) in SK-N-MC cells
# Format: cell-based
# Conditions: SK-N-MC cells endogenously expressing human CGRP receptor; challenge with EC80 human CGRP (0.3 nM); functional pKb converted from pIC50 by modified Cheng-Prussoff equation
# Method: Biological Activity cAMP Functional Assay
# cAMP production following receptor activation was determined using the Homogeneous Time-Resolved Fluorescence (HTRF) cAMP dynamic-2 assay (Cisbio, France). The human neuroblastoma cell line SK-N-MC endogenously expressing the human CGRP receptor was seeded at a density of 12,500 cells/well in solid walled 96 well half area plates (Costar, Catalog Number 3688, Corning Life Sciences, Germany). After 16 h incubation at 37° C. media was removed and cells were incubated at 37° C. for 30 min in serum free media containing 500 μM IBMX (Tocris, Abingdon, UK, Catalog Number 2845) and increasing concentrations of test antagonist. Following this cells were challenged with an EC80 concentration of human CGRP (0.3 nM) for a further 30 min at 37° C. and then cAMP production was determined as manufacturer's instructions before plates were read on a PheraStar fluorescence plate reader (BMG LabTech, Germany). IC50 values were derived from the inhibition curve. The pIC50 values (where pIC50=−log 10 IC50) were converted to a functional pKb value using a modified Cheng-Prussoff equation where Kd=agonist EC50 and L hot=agonist challenge concentration. The pKb values of certain compounds of the invention are detailed in Table 4.
# T1 sequence (Q16602 23-461): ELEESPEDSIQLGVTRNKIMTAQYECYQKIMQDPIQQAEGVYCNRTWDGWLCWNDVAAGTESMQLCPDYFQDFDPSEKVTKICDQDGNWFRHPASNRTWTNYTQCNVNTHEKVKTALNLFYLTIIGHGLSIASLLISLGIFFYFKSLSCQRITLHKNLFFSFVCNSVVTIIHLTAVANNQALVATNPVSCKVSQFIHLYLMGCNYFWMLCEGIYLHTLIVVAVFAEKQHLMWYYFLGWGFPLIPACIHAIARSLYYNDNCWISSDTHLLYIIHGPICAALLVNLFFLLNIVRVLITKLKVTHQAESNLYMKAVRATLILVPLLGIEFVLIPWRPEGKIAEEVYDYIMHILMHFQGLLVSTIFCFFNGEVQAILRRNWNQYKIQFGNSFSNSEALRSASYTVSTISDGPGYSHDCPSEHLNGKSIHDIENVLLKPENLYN
# T1 sequence (O60894 27-148): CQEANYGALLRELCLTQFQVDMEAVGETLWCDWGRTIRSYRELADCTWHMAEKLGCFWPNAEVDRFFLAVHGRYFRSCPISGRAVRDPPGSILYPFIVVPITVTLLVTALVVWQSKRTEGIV
row,Kb [nM],SMILES
1,1.26,"CN1CCOCCOC/C=C/c2cnc3c(c2)[C@]2(Cc4ccc(cc4C2)C(=O)NC(Cc2cc(Cl)c4[nH]ncc4c2)C1=O)C(=O)N3 (mixture of isomers) [Example 3-9, (1R,20E)-10-[(7-chloro-1H-indazol-5-yl)methyl]-12-methyl-15,18-dioxa-9,12,24,26-tetrazapentacyclo[20.5.2.11,4.13,7.025,28]hentriaconta-3,5,7(30),20,22(29),23,25(28)-heptaene-8,11,27-trione]"
2,20,"Cc1cc(C[C@H]2NC(=O)c3ccc4c(n3)CC3(C4)C(=O)Nc4ncc(cc43)/C=C/COCCOCCN(C)C2=O)cc2cn[nH]c12 (single isomer, unassigned) [Example 8-1]"
3,31.6,"Cc1cc(C[C@H]2NC(=O)c3ccc4c(n3)CC3(C4)C(=O)Nc4ncc(cc43)/C=C/COCCOCCN(C)C2=O)cc2cn[nH]c12 (single isomer, unassigned) [Example 8-2]"
4,200,"Cc1cc(C[C@H]2NC(=O)c3cnc4c(c3)C[C@]3(C4)C(=O)Nc4ncc(cc43)/C=C/COCCOCCN(C)C2=O)cc2cn[nH]c12 [Example 1-2, (1R,10R,20E)-12-methyl-10-[(7-methyl-1H-indazol-5-yl)methyl]-15,18-dioxa-5,9,12,24,26-pentazapentacyclo[20.5.2.11,4.13,7.025,28]hentriaconta-3,5,7(30),20,22(29),23,25(28)-heptaene-8,11,27-trione]"
5,10,"Cc1cc(C[C@@H]2NC(=O)c3cnc4c(c3)C[C@@]3(C4)C(=O)Nc4ncc(cc43)/C=C/COCCOCCN(C)C2=O)cc2cn[nH]c12 [Example 1-3, (1S,10S,20E)-12-methyl-10-[(7-methyl-1H-indazol-5-yl)methyl]-15,18-dioxa-5,9,12,24,26-pentazapentacyclo[20.5.2.11,4.13,7.025,28]hentriaconta-3,5,7(30),20,22(29),23,25(28)-heptaene-8,11,27-trione]"
6,0.251,"Cc1cc(C[C@H]2NC(=O)c3cnc4c(c3)C[C@@]3(C4)C(=O)Nc4ncc(cc43)/C=C/COCCOCCOCCN(C)C2=O)cc2cn[nH]c12 [Example 1-4, (1S,10R,23E)-12-methyl-10-[(7-methyl-1H-indazol-5-yl)methyl]-15,18,21-trioxa-5,9,12,27,29-pentazapentacyclo[23.5.2.11,4.13,7.028,31]tetratriaconta-3,5,7(33),23,25(32),26,28(31)-heptaene-8,11,30-trione]"
7,0.0631,"Cc1cc(C[C@H]2NC(=O)c3cnc4c(c3)C[C@@]3(C4)C(=O)Nc4ncc(cc43)/C=C/COCCCCN(C)C2=O)cc2cn[nH]c12 [Example 1-7, (1S,10R,19E)-12-methyl-10-[(7-methyl-1H-indazol-5-yl)methyl]-17-oxa-5,9,12,23,25-pentazapentacyclo[19.5.2.11,4.13,7.024,27]triaconta-3,5,7(29),19,21(28),22,24(27)-heptaene-8,11,26-trione]"
8,1.26,"Cc1cc(C[C@H]2NC(=O)c3cnc4c(c3)C[C@@]3(C4)C(=O)Nc4ncc(cc43)CCCOCCOCCN(C)C2=O)cc2cn[nH]c12 [Example 1-8, (1S,10R)-12-methyl-10-[(7-methyl-1H-indazol-5-yl)methyl]-15,18-dioxa-5,9,12,24,26-pentazapentacyclo[20.5.2.11,4.13,7.025,28]hentriaconta-3,5,7(30),22(29),23,25(28)-hexaene-8,11,27-trione]"
9,2.51,"Cc1cc(C[C@H]2NC(=O)c3cc4c(cn3)C[C@]3(C4)C(=O)Nc4ncc(cc43)/C=C/COCCOCCN(C)C2=O)cc2cn[nH]c12 [Example 2-1, (1S,10R,20E)-12-methyl-10-[(7-methyl-1H-indazol-5-yl)methyl]-15,18-dioxa-6,9,12,24,26-pentazapentacyclo[20.5.2.11,4.13,7.025,28]hentriaconta-3,5,7(30),20,22(29),23,25(28)-heptaene-8,11,27-trione]"
10,0.794,"Cc1cc(C[C@H]2NC(=O)c3cc4c(cn3)C[C@@]3(C4)C(=O)Nc4ncc(cc43)/C=C/COCCOCCN(C)C2=O)cc2cn[nH]c12 [Example 2-2, (1R,10R,20E)-12-methyl-10-[(7-methyl-1H-indazol-5-yl)methyl]-15,18-dioxa-6,9,12,24,26-pentazapentacyclo[20.5.2.11,4.13,7.025,28]hentriaconta-3,5,7(30),20,22(29),23,25(28)-heptaene-8,11,27-trione]"
11,1.26,"Cc1cc(C[C@H]2NC(=O)c3cc4c(cn3)C[C@@]3(C4)C(=O)Nc4ncc(cc43)/C=C/CN(C)CCCCCN(C)C2=O)cc2cn[nH]c12 [Example 2-3, (1R,10R,20E)-12,18-dimethyl-10-[(7-methyl-1H-indazol-5-yl)methyl]-6,9,12,18,24,26-hexazapentacyclo[20.5.2.11,4.13,7.025,28]hentriaconta-3,5,7(30),20,22(29),23,25(28)-heptaene-8,11,27-trione]"
12,25.1,"Cc1cc(C[C@H]2NC(=O)c3cc4c(cn3)C[C@]3(C4)C(=O)Nc4ncc(cc43)/C=C/COCCOCCN(C)C2=O)cc2cnn(C)c12 [Example 2-4, (1S,10R,20E)-10-[(1,7-dimethylindazol-5-yl)methyl]-12-methyl-15,18-dioxa-6,9,12,24,26-pentazapentacyclo[20.5.2.11,4.13,7.025,28]hentriaconta-3,5,7(30),20,22(29),23,25(28)-heptaene-8,11,27-trione]"
13,0.501,"Cc1cc(C[C@H]2NC(=O)c3cc4c(cn3)C[C@@]3(C4)C(=O)Nc4ncc(cc43)/C=C/COCCOCCN(C)C2=O)cc2cnn(C)c12 [Example 2-5, (1R,10R,20E)-10-[(1,7-dimethylindazol-5-yl)methyl]-12-methyl-15,18-dioxa-6,9,12,24,26-pentazapentacyclo[20.5.2.11,4.13,7.025,28]hentriaconta-3,5,7(30),20,22(29),23,25(28)-heptaene-8,11,27-trione]"
14,0.794,"Cc1cc(C[C@H]2NC(=O)c3cc4c(cn3)C[C@@]3(C4)C(=O)Nc4ncc(cc43)/C=C/COCCCCCN(C)C2=O)cc2cnn(C)c12 [Example 2-6, (1R,10R,20E)-10-[(1,7-dimethylindazol-5-yl)methyl]-12-methyl-18-oxa-6,9,12,24,26-pentazapentacyclo[20.5.2.11,4.13,7.025,28]hentriaconta-3,5,7(30),20,22(29),23,25(28)-heptaene-8,11,27-trione]"
15,1,"Cc1cc(C[C@H]2NC(=O)c3cc4c(cn3)C[C@@]3(C4)C(=O)Nc4ncc(cc43)/C=C/COCCCCN(C)C2=O)cc2cnn(C)c12 [Example 2-7, (1R,10R,19E)-10-[(1,7-dimethylindazol-5-yl)methyl]-12-methyl-17-oxa-6,9,12,23,25-pentazapentacyclo[19.5.2.11,4.13,7.024,27]triaconta-3,5,7(29),19,21(28),22,24(27)-heptaene-8,11,26-trione]"
16,2,"Cc1cc(C[C@H]2NC(=O)c3cc4c(cn3)C[C@@]3(C4)C(=O)Nc4ncc(cc43)/C=C/CN(C)CCCCCN(C)C2=O)cc2cnn(C)c12 [Example 2-8, (1R,10R,20E)-10-[(1,7-dimethylindazol-5-yl)methyl]-12,18-dimethyl-6,9,12,18,24,26-hexazapentacyclo[20.5.2.11,4.13,7.025,28]hentriaconta-3,5,7(30),20,22(29),23,25(28)-heptaene-8,11,27-trione]"
17,1.26,"Cc1cc(C[C@H]2NC(=O)c3cc4c(cn3)C[C@@]3(C4)C(=O)Nc4ncc(cc43)/C=C/COCCN(C)CCN(C)C2=O)cc2cnn(C)c12 [Example 2-9, (1R,10R,20E)-10-[(1,7-dimethylindazol-5-yl)methyl]-12,15-dimethyl-18-oxa-6,9,12,15,24,26-hexazapentacyclo[20.5.2.11,4.13,7.025,28]hentriaconta-3,5,7(30),20,22(29),23,25(28)-heptaene-8,11,27-trione]"
18,1.26,"Cc1cc(C[C@H]2NC(=O)c3ccc4c(c3)C[C@@]3(C4)C(=O)Nc4ncc(cc43)/C=C/COCCOCCN(C)C2=O)cc2cn[nH]c12 [Example 3-1, (1R,10R,20E)-12-methyl-10-[(7-methyl-1H-indazol-5-yl)methyl]-15,18-dioxa-9,12,24,26-tetrazapentacyclo[20.5.2.11,4.13,7.025,28]hentriaconta-3,5,7(30),20,22(29),23,25(28)-heptaene-8,11,27-trione]"
19,0.631,"Cc1cc(C[C@H]2NC(=O)c3ccc4c(c3)C[C@]3(C4)C(=O)Nc4ncc(cc43)/C=C/COCCOCCN(C)C2=O)cc2cn[nH]c12 [Example 3-2, (1S,10R,20E)-12-methyl-10-[(7-methyl-1H-indazol-5-yl)methyl]-15,18-dioxa-9,12,24,26-tetrazapentacyclo[20.5.2.11,4.13,7.025,28]hentriaconta-3,5,7(30),20,22(29),23,25(28)-heptaene-8,11,27-trione]"
20,0.794,"Cc1cc(C[C@H]2NC(=O)c3ccc4c(c3)C[C@]3(C4)C(=O)Nc4ncc(cc43)/C=C/COCCCN(C)C2=O)cc2cn[nH]c12 [Example 3-3, (1S,10R,18E)-12-methyl-10-[(7-methyl-1H-indazol-5-yl)methyl]-16-oxa-9,12,22,24-tetrazapentacyclo[18.5.2.11,4.13,7.023,26]nonacosa-3,5,7(28),18,20(27),21,23(26)-heptaene-8,11,25-trione]"
